Read-outs that look alike come from different tables or passages of the source.
Columns and labels:
[1] = biological target: human NaV1.5 late sodium current (INaL) (Homo sapiens (Human), UniProt Q14524); test: INaL inhibition at hNaV1.5, PatchXpress electrophysiology; type: cell-based; conditions: HEK-293 cells expressing recombinant human NaV1.5, HEK-293 cells expressing hNaV1.5, late current evoked by 300 nM ATX-II, read-out: INaL v1.5 (1 μM, % Inhibition)
[2] = biological target: human NaV1.6 (hNaV1.6) (Homo sapiens (Human), UniProt Q9UQD0); test: INaL inhibition at hNaV1.6, PatchXpress electrophysiology; type: cell-based
How it was run: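 Recombinant hNaV1.6 in HEK-293 cells recorded by automated patch clamp, with late current evoked by 300 nM ATX-II. INaL taken as mean current over the final 20 ms of the test pulse. Steady-state inhibition expressed as […].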

[3] = PK rat clearance experiment; type: in vivo; conditions: male Sprague-Dawley rats, single intravenous bolus 0.5 mg/kg, plasma
Procedure: The IV dosing solution was prepared freshly on the dosing day. Test article (0.5 mg/kg) was prepared in a vehicle, for example, consisting of 5% DMSO/5% solutol/90% water. The concentrations of test article in all dosing solutions were determined by HPLC/UV. Three male Sprague-Dawley rats were used in this study. The animals were confirmed healthy before being assigned to the study. Each animal was given a unique identification number which was marked on the tail or the ear, and written on the cage card. All animals were fasted overnight before dosing and the food was returned at 4 hours post dosing. Water was provided to all animals ad libitum during the fasting period. Animals were weighed prior to dose administration on the day of dosing for calculating the actual dose volume. The body weights were in the range from 212 g to 223 g for males. All animals received test article by single intravenous bolus administration at 0.5 mg/kg. Approximately 0.2 mL blood was collected at each time point via jugular vein from each study animal. […] All blood samples were transferred into pre-labeled plastic micro centrifuge tubes and mixed with the pre-loaded anti-coagulant K2EDTA (5 μL, 0.5 M). Plasma samples were then prepared by centrifuging the blood samples. All plasma samples were then quickly frozen over dry ice and kept at −60° C. or lower until LC/MS/MS analysis. The concentrations of test article in plasma were determined by using a quantitative bioanalytical LC/MS/MS method. The lower limit of quantitation (LLOQ) for test article in plasma was 1 ng/mL, and the upper limit of quantitation (ULOQ) in plasma was 3000 ng/mL. The plasma concentration of test article in rats was subjected to a non compartmental pharmacokinetic analysis by using the Phoenix WinNonlin software (version 6.3, Pharsight, Mountain View, Calif.). The linear/log trapezoidal rule was applied in obtaining the PK parameters.

[4] = biological target: CYP1A2 (Homo sapiens (Human), UniProt P05177); test: CYP1A2 inhibition in human liver microsomes; type: in vitro ADME; conditions: pooled human liver microsomes, marker substrate Phenacetin
Procedure: The specific marker metabolites are measured with LC/MS/MS. The remaining enzymatic activities and inhibitory potency IC50 are determined. Microsomes are removed out of the −80° C. freezer to thaw on ice and 20 μL of the substrates solution added to the corresponding wells. […] Then 158 μL of the HLM working solution was added to all wells of the incubation plate. The plate was pre-warmed for about 10 min using a 37° C. water bath. Then 20 μL of the NADPH cofactor solution was added to all incubation wells, mixed and incubated for 10 minutes at 37° C. water bath. The reaction is terminated by adding 400 μL cold stop solution (200 ng/mL Tolbutamide and 200 ng/mL Labetalol in ACN). […] Finally 200 μL of the supernatant was transferred to 100 μL HPLC water, shaken for 10 min and analyzed by LC/MS/MS. […] Equation for three parameters logistic sigmoidal curve: […]

[5] = HEK293, 1 μM, HEK-293 cells expressing hNaV1.6, late current evoked by 300 nM ATX-II, read-out: INaL v1.6 (1 μM, % Inhibition)

human NaV1.5 late sodium current (INaL), sequence (Q14524 whole entry): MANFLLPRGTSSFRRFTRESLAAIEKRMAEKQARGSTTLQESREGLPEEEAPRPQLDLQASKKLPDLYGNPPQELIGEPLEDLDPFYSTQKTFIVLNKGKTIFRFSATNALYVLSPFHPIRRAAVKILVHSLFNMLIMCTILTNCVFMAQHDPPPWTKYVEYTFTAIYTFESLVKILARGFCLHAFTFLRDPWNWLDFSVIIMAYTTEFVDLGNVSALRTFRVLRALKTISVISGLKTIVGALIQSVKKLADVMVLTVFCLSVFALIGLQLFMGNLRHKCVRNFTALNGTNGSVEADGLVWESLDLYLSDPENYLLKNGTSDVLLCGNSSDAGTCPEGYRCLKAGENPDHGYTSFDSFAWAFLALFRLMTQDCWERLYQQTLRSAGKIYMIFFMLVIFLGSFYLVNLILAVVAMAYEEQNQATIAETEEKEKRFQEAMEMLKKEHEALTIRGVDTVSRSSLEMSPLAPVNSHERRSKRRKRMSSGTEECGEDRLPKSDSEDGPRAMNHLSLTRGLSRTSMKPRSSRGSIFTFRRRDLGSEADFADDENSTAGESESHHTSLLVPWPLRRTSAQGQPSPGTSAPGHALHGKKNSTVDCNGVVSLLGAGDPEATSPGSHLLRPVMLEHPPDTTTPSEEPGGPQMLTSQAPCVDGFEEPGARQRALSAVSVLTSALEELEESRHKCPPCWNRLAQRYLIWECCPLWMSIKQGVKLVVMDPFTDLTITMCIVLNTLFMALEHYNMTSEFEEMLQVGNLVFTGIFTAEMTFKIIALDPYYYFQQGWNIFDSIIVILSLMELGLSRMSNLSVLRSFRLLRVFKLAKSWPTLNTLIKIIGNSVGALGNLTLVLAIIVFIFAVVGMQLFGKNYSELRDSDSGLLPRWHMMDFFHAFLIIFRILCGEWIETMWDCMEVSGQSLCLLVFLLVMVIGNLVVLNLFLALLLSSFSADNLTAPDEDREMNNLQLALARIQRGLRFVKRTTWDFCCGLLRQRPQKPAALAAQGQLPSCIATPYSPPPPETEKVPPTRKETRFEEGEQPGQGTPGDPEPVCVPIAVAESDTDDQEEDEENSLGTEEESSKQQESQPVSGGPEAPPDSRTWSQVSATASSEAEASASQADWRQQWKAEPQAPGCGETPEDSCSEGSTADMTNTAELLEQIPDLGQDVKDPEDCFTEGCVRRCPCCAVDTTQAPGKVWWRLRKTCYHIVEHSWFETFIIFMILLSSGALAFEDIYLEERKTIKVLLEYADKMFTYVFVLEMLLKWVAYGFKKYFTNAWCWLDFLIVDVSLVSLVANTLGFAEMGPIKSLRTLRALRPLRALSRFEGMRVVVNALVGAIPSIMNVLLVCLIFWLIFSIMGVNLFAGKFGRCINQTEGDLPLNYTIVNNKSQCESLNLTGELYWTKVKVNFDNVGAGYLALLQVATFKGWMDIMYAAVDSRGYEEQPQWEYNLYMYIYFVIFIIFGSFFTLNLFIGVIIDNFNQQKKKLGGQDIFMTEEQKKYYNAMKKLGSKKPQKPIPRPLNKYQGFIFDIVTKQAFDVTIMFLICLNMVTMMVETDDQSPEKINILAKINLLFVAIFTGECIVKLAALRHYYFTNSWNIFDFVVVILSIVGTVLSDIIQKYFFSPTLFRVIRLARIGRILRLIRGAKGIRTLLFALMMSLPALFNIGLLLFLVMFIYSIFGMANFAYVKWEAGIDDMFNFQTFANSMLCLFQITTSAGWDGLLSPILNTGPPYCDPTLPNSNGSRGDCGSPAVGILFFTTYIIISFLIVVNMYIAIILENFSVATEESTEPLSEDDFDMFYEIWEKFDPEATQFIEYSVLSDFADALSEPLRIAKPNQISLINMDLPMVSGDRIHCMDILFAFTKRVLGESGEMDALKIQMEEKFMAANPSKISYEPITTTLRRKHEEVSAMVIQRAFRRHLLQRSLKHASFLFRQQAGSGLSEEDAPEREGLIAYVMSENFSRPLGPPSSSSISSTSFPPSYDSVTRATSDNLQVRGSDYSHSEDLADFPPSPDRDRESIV
human NaV1.6 (hNaV1.6), sequence (Q9UQD0 whole entry): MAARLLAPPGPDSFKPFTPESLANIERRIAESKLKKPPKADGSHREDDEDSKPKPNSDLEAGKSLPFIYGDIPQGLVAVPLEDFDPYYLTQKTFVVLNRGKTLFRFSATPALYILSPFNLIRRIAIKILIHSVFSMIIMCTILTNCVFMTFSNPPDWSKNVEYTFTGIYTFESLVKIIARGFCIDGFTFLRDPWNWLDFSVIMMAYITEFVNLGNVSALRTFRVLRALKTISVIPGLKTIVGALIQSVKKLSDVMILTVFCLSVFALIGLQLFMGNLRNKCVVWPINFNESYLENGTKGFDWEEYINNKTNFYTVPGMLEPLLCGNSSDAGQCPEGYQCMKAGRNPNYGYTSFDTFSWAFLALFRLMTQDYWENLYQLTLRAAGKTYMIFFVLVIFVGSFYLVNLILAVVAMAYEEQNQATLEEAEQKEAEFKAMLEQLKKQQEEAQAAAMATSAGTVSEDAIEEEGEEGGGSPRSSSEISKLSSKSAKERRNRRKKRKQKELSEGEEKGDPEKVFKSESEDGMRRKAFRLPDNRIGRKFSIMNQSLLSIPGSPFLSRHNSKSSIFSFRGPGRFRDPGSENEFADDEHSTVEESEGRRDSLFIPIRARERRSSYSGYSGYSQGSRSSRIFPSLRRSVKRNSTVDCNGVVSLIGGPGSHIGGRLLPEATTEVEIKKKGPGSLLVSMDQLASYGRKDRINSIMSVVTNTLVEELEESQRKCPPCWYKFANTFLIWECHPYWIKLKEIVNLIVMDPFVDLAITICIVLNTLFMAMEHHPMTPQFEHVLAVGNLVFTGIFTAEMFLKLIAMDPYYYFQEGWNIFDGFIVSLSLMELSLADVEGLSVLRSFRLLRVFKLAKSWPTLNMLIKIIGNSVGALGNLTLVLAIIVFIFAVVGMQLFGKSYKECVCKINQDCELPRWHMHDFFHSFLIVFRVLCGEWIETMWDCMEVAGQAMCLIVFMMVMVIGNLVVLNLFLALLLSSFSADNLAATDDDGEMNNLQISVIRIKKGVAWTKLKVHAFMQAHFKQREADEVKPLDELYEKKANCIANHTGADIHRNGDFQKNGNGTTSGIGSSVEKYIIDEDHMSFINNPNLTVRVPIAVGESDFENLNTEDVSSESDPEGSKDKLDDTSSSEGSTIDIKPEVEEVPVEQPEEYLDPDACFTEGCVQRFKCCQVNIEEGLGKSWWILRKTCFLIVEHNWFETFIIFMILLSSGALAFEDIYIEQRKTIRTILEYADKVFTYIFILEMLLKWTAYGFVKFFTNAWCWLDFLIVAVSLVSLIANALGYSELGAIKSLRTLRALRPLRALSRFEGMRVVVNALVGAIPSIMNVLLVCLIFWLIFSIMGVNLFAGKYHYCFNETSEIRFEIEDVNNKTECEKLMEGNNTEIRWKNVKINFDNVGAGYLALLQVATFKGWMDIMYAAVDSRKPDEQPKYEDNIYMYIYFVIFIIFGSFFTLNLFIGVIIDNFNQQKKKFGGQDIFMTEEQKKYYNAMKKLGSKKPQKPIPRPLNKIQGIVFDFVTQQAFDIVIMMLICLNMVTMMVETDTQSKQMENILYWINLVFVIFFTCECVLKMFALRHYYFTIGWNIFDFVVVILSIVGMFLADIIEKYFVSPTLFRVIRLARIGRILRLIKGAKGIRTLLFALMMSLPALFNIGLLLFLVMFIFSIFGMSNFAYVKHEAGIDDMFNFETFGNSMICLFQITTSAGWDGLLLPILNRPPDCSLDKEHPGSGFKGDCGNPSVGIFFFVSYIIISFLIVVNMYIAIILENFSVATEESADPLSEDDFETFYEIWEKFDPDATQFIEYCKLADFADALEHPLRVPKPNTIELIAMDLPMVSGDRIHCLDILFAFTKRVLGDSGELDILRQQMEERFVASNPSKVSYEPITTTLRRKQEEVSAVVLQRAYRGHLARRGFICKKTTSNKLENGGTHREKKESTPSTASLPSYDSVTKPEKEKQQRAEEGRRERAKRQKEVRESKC
CYP1A2, sequence (P05177 whole entry): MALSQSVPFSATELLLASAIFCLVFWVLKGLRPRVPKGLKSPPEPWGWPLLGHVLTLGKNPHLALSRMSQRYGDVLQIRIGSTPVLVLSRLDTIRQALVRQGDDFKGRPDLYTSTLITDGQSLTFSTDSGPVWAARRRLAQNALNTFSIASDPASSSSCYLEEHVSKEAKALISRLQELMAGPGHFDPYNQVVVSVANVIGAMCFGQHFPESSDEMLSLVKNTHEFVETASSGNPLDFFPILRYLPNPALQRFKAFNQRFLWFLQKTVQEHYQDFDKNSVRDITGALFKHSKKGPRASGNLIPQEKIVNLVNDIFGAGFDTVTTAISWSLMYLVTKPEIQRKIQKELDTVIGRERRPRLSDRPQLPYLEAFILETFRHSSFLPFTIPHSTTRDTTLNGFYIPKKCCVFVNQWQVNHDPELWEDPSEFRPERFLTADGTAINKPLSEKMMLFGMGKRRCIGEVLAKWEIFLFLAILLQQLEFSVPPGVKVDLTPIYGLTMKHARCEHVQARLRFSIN

SMILES | inhibition at 1 µM [2, 5] | clearance [3] | half-life [3] | IC50 [4] | inhibition at 1 µM [1] | inhibition at 1 µM ([2]; HEK293, read-out: INaL v1.6 (1 μM, % Inhibition))
FC1(F)CC(c2nnc3ccc(-c4ccc(OC(F)(F)F)cc4)nn23)C1 [Compound 14] | > 70% | 32.8 mL/min/kg | 1.4 h | – | > 50% | –
FC(F)(F)Cc1nnc2ccc(-c3ccc(OC(F)(F)F)cc3)nn12 [Compound 6] | 30 to 70% | 9.2 mL/min/kg | 3.2 h | 1 to 15 µM | > 50% | –
FC(F)(F)Oc1ccc(-c2ccc3nnc(CC4CCOC4)n3n2)cc1 (stereo not shown) [Compound 10] | 30 to 70% | – | – | – | < 50% | –
COc1cc(OC(F)(F)F)ccc1-c1ccc2nnc(C3CC(F)(F)C3)n2n1 [Compound 13] | > 70% | – | – | – | > 50% | –
N#CC1(c2ccc(-c3ccc4nnc(C(F)(F)F)n4n3)cc2)CC1 [Compound 12] | > 70% | 5.1 mL/min/kg | 1.4 h | 1 to 15 µM | > 50% | –
COc1cc(OC(F)(F)F)ccc1-c1ccc2nnc(C3CC3(F)F)n2n1 (stereo not shown) [Compound 15] | > 70% | – | – | – | > 50% | –
FC(F)(F)COc1ccc(-c2ccc3nnc(C4CC4)n3n2)cn1 [Compound 8] | 30 to 70% | – | – | – | > 50% | –
FC(F)(F)Oc1ccc(-c2ccc3nnc(CC4CCCO4)n3n2)cc1 (stereo not shown) [Compound 11] | < 30% | – | – | – | < 50% | –
OCc1nnc2ccc(-c3ccc(OC(F)(F)F)cc3)nn12 [Compound 21] | – | – | – | – | < 50% | < 30%
FC1(F)CC(Oc2ccc(-c3ccc4nnc(C(F)(F)F)n4n3)cc2)C1 [Compound 59] | 30 to 70% | 39.8 mL/min/kg | 0.8 h | > 30 µM | – | –

The next lines start with results.

inhibition at 1 µM [2, 5] | clearance [3] | half-life [3] | IC50 [4] | SMILES | inhibition at 1 µM [1] | inhibition at 1 µM ([2]; HEK293, read-out: INaL v1.6 (1 μM, % Inhibition))
30 to 70% | – | – | – | FC(F)(F)COc1ccc(-c2ccc3nnc(C(F)(F)C(F)(F)F)n3n2)cn1 [Compound 9] | > 50% | –
> 70% | 1.4 mL/min/kg | 21.9 h | – | Fc1cc(OC(F)(F)F)ccc1-c1ccc2nnc(C(F)(F)F)n2n1 [Compound 23] | > 50% | –
> 70% | – | – | – | FC(F)(F)c1ccc(-c2ccc3nnc(C(F)(F)F)n3n2)cc1 [Compound 1] | > 50% | –
30 to 70% | – | – | – | FC(F)(F)COc1ccc(-c2ccc3nnc(CC(F)(F)F)n3n2)cn1 [Compound 7] | < 50% | –
> 70% | 2 mL/min/kg | 15.4 h | – | Fc1cc(-c2ccc3nnc(C(F)(F)F)n3n2)ccc1OC(F)(F)F [Compound 31] | > 50% | –
< 30% | – | – | – | Fc1c(OC(F)(F)F)cccc1-c1ccc2nnc(C(F)(F)F)n2n1 [Compound 19] | < 50% | –
> 70% | 16.6 mL/min/kg | 0.6 h | – | COc1cc(C2(C#N)CC2)ccc1-c1ccc2nnc(C(F)(F)F)n2n1 [Compound 22] | > 50% | –
< 30% | – | – | – | Fc1ccc(OC(F)(F)F)cc1-c1ccc2nnc(C(F)(F)F)n2n1 [Compound 18] | < 50% | –
> 70% | 6 mL/min/kg | 6.7 h | 1 to 15 µM | Cc1cc(C(F)(F)F)ccc1-c1ccc2nnc(C(F)(F)F)n2n1 [Compound 3] | > 50% | –
> 70% | – | – | – | Cc1cc(-c2ccc3nnc(C(F)(F)F)n3n2)ccc1OC(F)(F)F [Compound 2] | > 50% | –
30 to 70% | – | – | – | FC(F)(F)Oc1cccc(-c2ccc3nnc(C(F)(F)F)n3n2)c1 [Compound 17] | < 50% | –
> 70% | 52.3 mL/min/kg | 0.49 h | – | COc1cc(OC(F)(F)F)ccc1-c1ccc2nnc(C(F)F)n2n1 [Compound 16] | > 50% | –
> 70% | 29 mL/min/kg | 0.36 h | 15 to 30 µM | FC(F)(F)COc1ccc(-c2ccc3nnc(C(F)(F)F)n3n2)cn1 [Compound 30] | > 50% | –

From US11629146B2, “Substituted [1,2,4]triazolo[4,3-a]pyrazines as modulators of sodium channel activity” (Praxis Precision Medicines, Inc., priority 2016, dated 2023)
